Legend:
Type in all cases: in vivo, BALB/c mice
[1] = tested on: Influenza HA protein antigen (A/California/7/2009(H1N1)pdm); experiment: ELISA of antigen-specific IgA and IgG after nasal vaccination with CL401, CL413 or CL531 (Example 2); settings: 1 µg HA alone or with 0.662 nmol or 6.62 nmol test compound
[2] = tested on: influenza virus (A/Singapore/GP1908/2015(IVR-180)(H1N1)pdm09); settings: HA 0.1 µg alone or with 3 µg adjuvant, twice, 3-week interval, sampled day 38, Fig. 1
[3] = tested on: HA antigen (A/Singapore/GP1908/2015(IVR-180)(H1N1)pdm09); experiment: ELISA of antigen-specific IgA and IgG after nasal vaccination (Example 1); settings: HA 0.1 µg alone or with 3 µg adjuvant, twice; for antigen-specific IgA level in the nasal lavage fluid: day 38, 2^2-fold dilution, Fig. 2; for antigen-specific IgG level in serum: day 38, 2^12-fold dilution, Fig. 3
[4] = tested on: A/Singapore/GP1908/2015(IVR-180)(H1N1)pdm09; settings: HA 0.1 µg alone or with 3 µg adjuvant, nasal, twice; for Serum HI antibody titers, Geometric Mean Titer (GMT): 3-week interval, serum day 38
[5] = tested on: Influenza virus HA protein antigen A/Guangdong-Maonan/SWL1536/2019(CNIC-1909)(H1N1); experiment: ELISA of antigen-specific IgA and IgG, improved formulation with chondroitin sulfate sodium (Example 4); settings: Fig. 7
Experimental: For the nasal administration test, 7-week-old female BALB/c mice were used, with 8 mice per group. Influenza virus HA protein antigen A/Guangdong-Maonan/SWL1536/2019(CNIC-1909)(H1N1) (Research Foundation for Microbial Diseases of Osaka University) was used. Vaccine groups included HA 0.1 µg alone, or HA 0.1 µg with 0.1 µg of TY001 S-form as adjuvant, and groups with/without 0.01% chondroitin sulfate sodium as an additive.
The vaccine solution was administered intranasally to mice at 5 µL per nostril (10 µL/mouse) twice, with a 3-week interval. Two weeks after the second administration (day 35), nasal lavage fluid and serum were collected, and antigen-specific IgA levels in nasal lavage fluid and IgG levels in serum were measured by ELISA.

[6] = tested on: Influenza virus HA protein antigen: A/Guangdong-Maonan/SWL1536/2019(CNIC-1909)(H1N1); experiment: ELISA of antigen-specific IgA and IgG after vaccination and virus challenge (Example 5); settings: twice, HA 0.1 µg alone or with TY001 S-form 0.01-0.3 µg and 0.01% chondroitin sulfate sodium
Experimental: (§1) For the nasal administration test, 7-week-old female BALB/c mice (9-10 mice per group) were used. Influenza virus HA protein antigen: A/Guangdong-Maonan/SWL1536/2019(CNIC-1909)(H1N1) and influenza virus: A/Guangdong-Maonan/SWL1536/2019(CNIC-1909)(H1N1) (Osaka University Microbial Disease Research Institute) were used. The vaccine formulations included HA 0.1 µg alone, and a formulation containing HA 0.1 µg co-administered with TY001 S-form at doses of 0.01-0.3 µg, and 0.01% chondroitin sulfate sodium as an additive. Vaccine solutions were administered into the nasal cavity, 5 µL into each nostril (10 µL/mouse), twice at a 3-week interval. As a control, a group subcutaneously administered with HA 0.1 µg alone was set up. Two weeks after the second administration (day 35), viral fluid was administered at 2 µL into each nostril (1x10^5 TCID50/mouse). Three days later (day 38), nasal wash fluid and serum were collected. The viral titer in the nasal wash fluid, antigen-specific IgA in nasal wash fluid, and IgG in serum were measured by ELISA.

SARS-CoV-2 S protein = experiment: ELISA of antigen-specific IgA and IgG after nasal vaccination with SARS-CoV-2 antigen (Example 3); settings: 3 µg S protein alone or with 0.3 µg TY001 S-form
[7] = tested on: influenza virus: A/Guangdong-Maonan/SWL1536/2019(CNIC-1909)(H1N1); experiment: Infection protection test: viral titer in nasal wash fluid (Example 5)
Experimental: as §1

[8] = tested on: Influenza virus HA protein antigen: A/Guangdong-Maonan/SWL1536/2019(CNIC-1909)(H1N1); experiment: Comparative test with various adjuvants: ELISA of antigen-specific IgA and IgG (Example 6); settings: HA 0.1 µg + 1 µg TY001 S-form (0.01% chondroitin sulfate sodium), twice
Experimental: For the nasal administration test, 8-week-old female BALB/c mice (6 mice per group) were used. Influenza virus HA protein antigen: A/Guangdong-Maonan/SWL1536/2019(CNIC-1909)(H1N1) (Osaka University Microbial Disease Research Institute) was used. Vaccine formulations included HA 0.1 µg alone, and those co-administered intranasally with 1 µg of TY001 S-form (formulation containing 0.01% chondroitin sulfate sodium as an additive), Cholera Toxin B subunit (CTB) (Fujifilm Wako Pure Chemical Corporation), CpG ODN (ODN 1826) (InvivoGen), or Polyinosinic-polycytidylic acid (Poly(I:C)) (InvivoGen). Each vaccine solution was administered into the nasal cavity, 5 µL into each nostril (10 µL/mouse), twice at a 3-week interval. A group subcutaneously administered with HA 0.1 µg + Alum 2 mg was also used. Two weeks after the second administration (day 35), nasal wash fluid, bronchoalveolar lavage fluid, and serum were collected. Antigen-specific IgA in nasal wash fluid and bronchoalveolar lavage fluid, and IgG in serum and bronchoalveolar lavage fluid were measured by ELISA.

[9] = HA 0.1 µg + 0.1 µg TY001 S-form + 0.01% chondroitin sulfate sodium, compared with no additive
[10] = HA 0.1 µg + 0.1 µg TY001 S-form, nasal, twice, 3-week interval, day 35

CCCCCCCCCCCCCCCC(=O)OCC(CSC[C@H](N)C(=O)Nc1ccc(Cn2c(O)nc3c(N)nc(NCCCC)nc32)cc1)OC(=O)CCCCCCCCCCCCCCC (some centres unmarked) [CL401]
antigen-specific IgG antibodies in plasma ([1]; day 0 and day 14, day 27, rank order, Fig. 4 lower panel): CL413 > CL531 > CL401
antigen-specific IgA in nasal lavage fluid ([1]; day 0 and day 14, day 28, rank order, Fig. 4 upper panel): CL413 > CL531 > CL401

CCCCCCCCCCCCCCCC(=O)OC[C@H](CSC[C@H](N)C(=O)NCCCNCCCCNCCCNC(=O)CNC(=O)c1ccc(Cn2c(O)nc3c(N)nc(NCCCC)nc32)cc1)OC(=O)CCCCCCCCCCCCCCC [TY001 R-form, (20R,24R)-20-amino-1-(4-((6-amino-2-(butylamino)-8-hydroxy-9H-purin-9-yl)methyl)phenyl)-1,4,19-trioxo-22-thia-2,5,9,14,18-pentaazapentacosane-24,25-diyl dipalmitate]
viral titer in the nasal lavage fluid [2]: showed suppression of viral infection
antigen-specific IgA level in the nasal lavage fluid [3]: showed induction of antigen-specific IgA antibodies in the nasal cavity
antigen-specific IgG level in serum [3]: showed an increase
HI antibody titer in serum [4]: showed an increase
Serum HI antibody titers, Geometric Mean Titer (GMT) [4]: 69.6

CCCCCCCCCCCCCCCC(=O)OC[C@@H](CSC[C@H](N)C(=O)NCCCNCCCCNCCCNC(=O)CNC(=O)c1ccc(Cn2c(O)nc3c(N)nc(NCCCC)nc32)cc1)OC(=O)CCCCCCCCCCCCCCC [TY001 S-form, (20R,24S)-20-amino-1-(4-((6-amino-2-(butylamino)-8-hydroxy-9H-purin-9-yl)methyl)phenyl)-1,4,19-trioxo-22-thia-2,5,9,14,18-pentaazapentacosane-24,25-diyl dipalmitate]
antibody-inducing effect, IgA in nasal wash fluid [5, 9]: stronger
antibody-inducing effect, IgG in serum [5, 9]: stronger
antigen-specific IgA in nasal wash fluid [5, 10]: induced
antigen-specific IgG in serum [5, 10]: induced
viral titer in the nasal lavage fluid [2]: showed suppression of viral infection
antigen-specific IgG in serum ([6]; nasal, day 38, Fig. 9): dose-dependent induction of nasal IgA and serum IgG
antigen-specific IgA in nasal wash fluid ([6]; day 38, Fig. 9): dose-dependent induction of nasal IgA and serum IgG
antigen-specific IgA level in the nasal lavage fluid (SARS-CoV-2 S protein; day 0 and 21, day 35, 2^3-fold dilution, Fig. 5): showed induction of antigen-specific IgA antibodies in the nasal cavity
antigen-specific IgG level in serum (SARS-CoV-2 S protein; day 0 and 21, day 35, 2^8-fold dilution, Fig. 6): showed an increase in antigen-specific IgG antibodies
antigen-specific IgA level in the nasal lavage fluid [3]: showed induction of antigen-specific IgA antibodies in the nasal cavity
antigen-specific IgG level in serum [3]: showed an increase
HI antibody titer in serum [4]: showed an increase
Serum HI antibody titers, Geometric Mean Titer (GMT) [4]: 85.7
viral titer in nasal wash fluid ([7]; HA 0.1 µg + TY001 S-form 0.1 µg + 0.01% chondroitin sulfate sodium, Fig. 8): no virus detected in any individual
viral titer in nasal wash fluid ([7]; HA 0.1 µg + TY001 S-form 0.3 µg + 0.01% chondroitin sulfate sodium, Fig. 8): no virus detected in any individual
viral titer in nasal wash fluid ([7]; twice, HA 0.1 µg alone or with TY001 S-form 0.01-0.3 µg and 0.01% chondroitin sulfate sodium, virus 1x10^5 TCID50/mouse day 35, day 38, Fig. 8): dose-dependent inhibition of viral infection
antigen-specific IgA in bronchoalveolar lavage fluid ([8]; nasal, day 35, Fig. 10): also induced
antigen-specific IgG in bronchoalveolar lavage fluid ([8]; nasal, day 35, Fig. 10): also induced
antibody-inducing ability (antigen-specific IgA in nasal wash fluid and bronchoalveolar lavage fluid, IgG in serum and bronchoalveolar lavage fluid) ([8]; compared with CTB, CpG ODN (ODN 1826), Poly(I:C) nasal and Alum 2 mg subcutaneous, day 35, Fig. 10): stronger antibody-inducing ability at a lower dose compared to any other adjuvant

Reference: patent EP4691485A1, “MUCOSAL ADJUVANT” (priority 2023, dated 2024)
